Earlier results in US9205144B2, “Identification of conserved peptide blocks in homologous polypeptides” (Dana-Farber Cancer Institute, Inc., priority 2011, dated 2015).

Experiments:
HLA-03 = HLA-03 (Homo sapiens, UniProt P04439)
Chain of HLA-03 (P04439 25-365): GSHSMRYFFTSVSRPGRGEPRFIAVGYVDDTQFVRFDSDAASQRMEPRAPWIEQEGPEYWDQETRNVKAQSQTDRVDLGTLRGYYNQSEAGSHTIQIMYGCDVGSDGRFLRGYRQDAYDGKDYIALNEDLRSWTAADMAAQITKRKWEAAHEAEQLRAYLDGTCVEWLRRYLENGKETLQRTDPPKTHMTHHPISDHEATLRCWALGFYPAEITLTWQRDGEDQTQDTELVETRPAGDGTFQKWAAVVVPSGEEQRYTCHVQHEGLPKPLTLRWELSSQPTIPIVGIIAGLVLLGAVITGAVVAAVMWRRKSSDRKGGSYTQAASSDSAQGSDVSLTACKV
Chain of HLA-03 (P61769 21-119, further chain): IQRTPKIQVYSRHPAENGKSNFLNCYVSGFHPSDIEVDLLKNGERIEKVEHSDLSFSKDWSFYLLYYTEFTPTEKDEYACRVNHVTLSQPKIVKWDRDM

KTFDTEYQK (listed as Dengue virus) [Peptide 1]
known ligand: ligand for HLA-03 (HLA-03) | ligand for HLA-11 (HLA-11) | ligand for HLA-31 (HLA-31)
